Ends that are not written are not given here. Peptide text beside a SMILES is read from it.
Key:
[1] = tested on: Desulfovibrio vulgaris biofilm; assay type: cell-based, Desulfovibrio vulgaris DSM 644; conditions: 6 h preincubation, then peptide (1 mg/mL to 1.95 µg/mL, twofold dilution), further 66 h, 37°C anaerobic; polished steel rivets; consistent for OD600 and OD570 (crystal violet); n = 3 per concentration
Experimental: D. vulgaris DSM 644 was cultivated in Postgate medium (DSMZ medium 63) with a modification of 0.004 g/L FeSO4 × 7H2O and 0.3 g/L trisodium citrate. The medium was flushed with nitrogen gas. Incubation was performed at 37°C without shaking. Steel […]660 4 × 15 mm (Würth-Gruppe) served as the growth surface. These were applied in the following pretreated stages: (1) mechanically untreated; (2) roughened: two turns with silicon carbide sandpaper with a grit size of 180; (3) polished: two turns with silicon carbide sandpaper with a sequential grit size of 320, 400, 600, 800, and 1200. The steel […] cleaned in acetone, 2-propanol, and ethanol (Carl Roth GmbH & Co. KG) for 5 min each using an ultrasonic bath, frequency 47 KHz (Branson Ultrasonic Corporation). […] Routine measurements of OD600 and OD570 were performed using the InfiniteM[…] plate reader (Tecan Group AG). For measurements in the anaerobic chamber, OD600 was measured with a Stratus microplate reader (Cerillo Inc.). […] Figure 2 Minimum biofilm inhibitory concentration (MBIC) assay for Desulfovibrio vulgaris: OD600 and OD570 of the challenge plate (72 h incubation) for different concentrations of four antimicrobial peptides: […]-33, Bactenecin, […]1 (black striped), and uninhibited sample (gray); mean and standard deviation were determined by propagation of error; asterisks indicate significant reduction (p = 0.005).

[2] = tested on: Desulfovibrio vulgaris biofilm; assay type: cell-based, Desulfovibrio vulgaris DSM 644
Experimental: D. vulgaris DSM 644 was cultivated in Postgate medium (DSMZ medium 63) with a modification of 0.004 g/L FeSO4 × 7H2O and 0.3 g/L trisodium citrate. The medium was flushed with nitrogen gas. Incubation was performed at 37°C without shaking. The preparation of the MBEC assay was similar to the MBIC. A measure of 120 μL of bacterial suspension was added per well as growth check (n = 8) or as AMP test (n = 6 per AMP concentration) and 120 μL of medium as sterile control (n = 8). The microtiter plate was incubated for 72 h. Afterward, the […] transferred to the challenge plate consisting of 120 μL of AMP solution (1 mg/mL to 1.95 μg/mL), 120 μL of medium for growth check (n = 8), 120 μL of medium (n = 4) or 120 μL of water (n = 2) or 120 μL of AMP with a concentration of 1 mg/mL (n = 2) for sterile control (in Figure A3, a pipetting scheme is shown). Incubation was performed for 24 h. The […] washed with 0.9% NaCl and half of them were stained with crystal violet (see MBIC). The other half was transferred to the recovery plate containing 120 μL of medium per well and placed in the ultrasonic bath for 30 min. The […] removed and the microtiter plate was incubated for 48 h. After the incubation period of 48 h, OD600 was measured. An overview of the individual steps of the MBIC/MBEC assay is shown in Figure 1.  Figure 5 Minimum biofilm eradication concentration (MBEC) assay for Desulfovibrio vulgaris: OD600 of the recovery plate (48 h incubation) and OD570 of the challenge plate (72 h incubation) for different concentrations of four antimicrobial peptides: […]-33, Bactenecin, […]1 (black striped), and uninhibited sample (gray); mean and standard deviation were determined by error propagation; asterisk indicates significant reduction (p = 0.005).

in vitro = in vitro ADME; conditions: cells or culture medium
Experimental: Figure 4 Long-term stability for the peptide […]1 in Postgate C medium (black) and in the supernatant of a 7-day-old culture of Desulfovibrio vulgaris (gray), analyzed with reversed-phase high-performance liquid chromatography; 100% peptide content corresponds with the peptide content at 0 h. Values are shown as means with standard deviation, n = 3.

Compound | MBIC95% [1] | Lowest peptide concentration with complete removal of the biofilm (total biofilm mass, OD570) ([2]; 72 h biofilm on steel rivets, challenge with peptide, crystal violet staining, OD570) [µg/mL] | Effect on OD600 of recovery plate below the MBEC95% ([2]; peptide concentrations 250 and 125 µg/mL) | Removal of total biofilm mass (OD570) at lower concentrations ([2]; peptide concentrations 250 and 125 µg/mL, crystal violet, OD570) | remaining at 168 h (in vitro) [%] | remaining at 504 h (in vitro) [%]
CC[C@H](C)[C@H](NC(=O)[C@H](CCCNC(=N)N)NC(=O)[C@H](CS)NC(=O)[C@H](CC(C)C)NC(=O)[C@@H](N)CCCNC(=N)N)C(=O)N[C@H](C(=O)N[C@H](C(=O)N[C@H](C(=O)N[C@@H](CCCNC(=N)N)C(=O)N[C@H](C(=O)N[C@@H](CS)C(=O)N[C@@H](CCCNC(=N)N)C(=O)O)C(C)C)[C@@H](C)CC)C(C)C)C(C)C [Bactenecin] (H-RLCRIVVIRVCR-OH; N-terminus and C-terminus assumed) | no biofilm inhibitory effects | 500 | partial effect | partial removal |  | 
FFGKVLKLIRKIF [DASamP1] |  |  |  |  | 70 | 56
